Laboratory results from US20180194762A1 (Pharmacyclics LLC, priority 2017, published 2018).
Read-outs that look alike come from different tables or passages of the source.

Key:
Assay type in all cases: biochemical
TEC = molecular target: T1, TEC (Homo sapiens, UniProt P42680); test: Inhibition of a panel of kinases (in vitro HotSpot kinase assay, 33P-ATP, 1 μM ATP); conditions: for IC50: HotSpot kinase assay, 1 μM ATP; for TEC/Btk: ratio of TEC IC50 to Btk IC50 (selectivity)
T1 sequence (P42680 1-631): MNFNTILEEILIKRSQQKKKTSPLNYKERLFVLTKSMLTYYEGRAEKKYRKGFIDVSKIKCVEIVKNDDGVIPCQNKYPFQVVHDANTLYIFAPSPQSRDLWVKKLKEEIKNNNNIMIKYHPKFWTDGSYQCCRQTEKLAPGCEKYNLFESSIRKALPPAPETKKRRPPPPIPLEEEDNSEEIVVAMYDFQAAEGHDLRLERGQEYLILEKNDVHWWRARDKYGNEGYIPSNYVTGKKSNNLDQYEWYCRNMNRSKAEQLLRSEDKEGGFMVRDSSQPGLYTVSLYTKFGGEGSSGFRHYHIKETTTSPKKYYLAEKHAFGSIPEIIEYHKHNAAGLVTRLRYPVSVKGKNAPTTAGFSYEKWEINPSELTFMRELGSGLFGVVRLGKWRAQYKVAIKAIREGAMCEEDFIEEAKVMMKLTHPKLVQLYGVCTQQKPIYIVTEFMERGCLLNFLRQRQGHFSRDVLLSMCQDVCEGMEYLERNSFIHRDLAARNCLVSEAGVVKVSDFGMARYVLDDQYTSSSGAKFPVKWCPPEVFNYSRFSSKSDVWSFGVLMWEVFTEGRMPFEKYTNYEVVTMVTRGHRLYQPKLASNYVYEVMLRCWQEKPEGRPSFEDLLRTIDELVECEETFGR
Summary of the method: (§1)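 Radiometric read-out: 33P transfer to a suitable substrate by each purified enzyme, ATP at 1 μM. Values are degree of inhibition.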

Btk = molecular target: T2, Btk (Homo sapiens, UniProt Q06187); test: Btk in vitro inhibitory activity (one of Method A TR-FRET, Method B electrophoretic mobility shift, Method C radiometric filter binding)
T2 construct: purified from insect cells as a full-length construct containing a N-terminal 6X-His tag; His6 (N); made in house; host or cells: insect cells (Method C)
T2 sequence (Q06187 whole entry): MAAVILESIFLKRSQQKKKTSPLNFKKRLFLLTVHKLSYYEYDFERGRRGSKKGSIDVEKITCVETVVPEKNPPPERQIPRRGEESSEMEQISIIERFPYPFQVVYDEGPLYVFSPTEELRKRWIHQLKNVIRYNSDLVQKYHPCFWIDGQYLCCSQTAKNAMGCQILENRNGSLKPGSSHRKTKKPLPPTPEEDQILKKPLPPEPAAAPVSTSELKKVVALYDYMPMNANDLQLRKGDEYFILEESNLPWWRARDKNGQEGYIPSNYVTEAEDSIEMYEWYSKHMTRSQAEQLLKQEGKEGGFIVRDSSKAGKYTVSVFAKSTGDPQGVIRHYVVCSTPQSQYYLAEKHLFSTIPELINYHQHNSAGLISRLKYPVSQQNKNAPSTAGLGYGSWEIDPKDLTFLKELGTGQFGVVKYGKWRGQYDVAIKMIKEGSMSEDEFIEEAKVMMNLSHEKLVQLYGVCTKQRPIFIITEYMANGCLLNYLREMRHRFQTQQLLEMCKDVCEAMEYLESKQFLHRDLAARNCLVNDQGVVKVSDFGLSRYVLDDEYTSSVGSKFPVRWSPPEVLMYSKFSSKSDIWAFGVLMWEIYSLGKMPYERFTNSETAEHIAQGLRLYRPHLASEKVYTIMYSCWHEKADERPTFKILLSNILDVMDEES
Summary of the method: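 Three alternative formats were used. A radiometric filter-binding read used 8 nM full-length His-BTK with 0.2 mg/mL poly(Glu-Tyr) 4:1 (C); microfluidic separation of 1 μM FAM-peptide by 1 nM BTK gave IC50 from 12-point curves (B); TR-FRET at Km ATP, 0.5 nM Btk, gave Ki(app)-derived IC50 (A).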

panel of kinases = molecular target: T3, panel of kinases (Homo sapiens, UniProt P51813); test: Inhibition of a panel of kinases (in vitro HotSpot kinase assay, 33P-ATP, 1 μM ATP), other kinases; conditions: BMX wild-type, read-out: BMX-WT IC50
T3 sequence (P51813 1-675): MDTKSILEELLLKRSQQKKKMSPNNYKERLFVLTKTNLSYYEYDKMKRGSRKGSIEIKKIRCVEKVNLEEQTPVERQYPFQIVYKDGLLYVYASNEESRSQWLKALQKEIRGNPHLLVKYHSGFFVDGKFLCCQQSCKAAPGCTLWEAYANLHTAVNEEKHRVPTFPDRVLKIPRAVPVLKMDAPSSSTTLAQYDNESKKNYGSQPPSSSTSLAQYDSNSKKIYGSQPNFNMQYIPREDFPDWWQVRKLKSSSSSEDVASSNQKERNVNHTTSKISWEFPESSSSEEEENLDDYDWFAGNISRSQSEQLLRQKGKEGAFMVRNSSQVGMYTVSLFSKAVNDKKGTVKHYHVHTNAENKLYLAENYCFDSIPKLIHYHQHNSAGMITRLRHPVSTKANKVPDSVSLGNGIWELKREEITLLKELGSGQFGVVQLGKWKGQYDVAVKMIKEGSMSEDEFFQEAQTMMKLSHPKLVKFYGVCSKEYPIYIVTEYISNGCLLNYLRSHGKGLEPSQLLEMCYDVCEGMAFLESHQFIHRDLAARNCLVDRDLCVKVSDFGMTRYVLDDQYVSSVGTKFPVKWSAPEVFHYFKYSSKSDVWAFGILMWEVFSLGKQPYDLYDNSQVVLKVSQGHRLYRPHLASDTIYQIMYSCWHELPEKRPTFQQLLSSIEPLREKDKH
Summary of the method: as §1

[1] = wild-type Btk, read-out: Btk-WT IC50
[2] = method is one of A, B or C, not stated which, read-out: IC50 values against Btk

Row | IC50 (TEC) [µM] | TEC/Btk (TEC) | IC50 (Btk; [1]) [µM] | IC50 (panel of kinases) [µM] | IC50 (Btk; [2]) [µM] | SMILES
1 | > 10 | >100 | 0.0893 | > 10 |  | C[C@@H]1[C@H](Nc2n[nH]c3nccc(-c4ccc(CNC(=O)c5noc(C(C)(C)C)n5)c(F)c4)c23)CCCN1C(=O)N(C)C [Example 125, (2R,3R)-3-{[4-(4-{[(5-tert-butyl-1,2,4-oxadiaozl-3-yl) formamido]methyl}-3-fluorophenyl)-1H-pyrazolo[3,4-b]pyridin-3-yl]amino}-N,N,2-trimethylpiperidine-1-carboxamide]
2 | 4.43 | 115 | 0.0384 | 5.45 |  | C[C@@H]1[C@H](Nc2n[nH]c3nccc(-c4ccc(CNC(=O)c5noc(C(C)(C)C)n5)c(F)c4)c23)CCCN1C(=O)C1CC1 [Example 126, 5-tert-butyl-N-{[4-(3-{[(2R,3R)-1-cyclopropanecarbonyl-2-methylpiperidin-3-yl]amino}-1H-pyrazolo[3,4-b]pyridin-4-yl)-2-fluorophenyl]methyl}-1,2,4-oxadiazole-3-carboxamide]
3 | 0.698 | 340 | 0.00205 | 1.55 | < 0.01 | C[C@H]1CC[C@@H](Nc2n[nH]c3nccc(-c4ccc(CNC(=O)c5noc(C(C)(C)C)n5)c(F)c4)c23)CN1C(=O)C1CC1 [Example 127, 5-tert-butyl-N-{[4-(3-{[(3R,6S)-1-cyclopropanecarbonyl-6-methylpiperidin-3-yl]amino}-1H-pyrazolo[3,4-b]pyridin-4-yl)-2-fluorophenyl]methyl}-1,2,4-oxadiazole-3-carboxamide]
4 | 0.5 | 388 | 0.00129 | 1.12 | < 0.01 | C[C@H]1CC[C@@H](Nc2n[nH]c3nccc(-c4ccc(CNC(=O)c5noc(C(C)(C)C)n5)c(F)c4)c23)CN1S(=O)(=O)C1CC1 [Example 128, 5-tert-butyl-N-{[4-(3-{[(3R,6S)-1-(cylcopropanesulfonyl)-6-methylpiperidin-3-yl]amino}-1H-pyrazolo[3,4-b]pyridin-4-yl)-2-fluorophenyl]methyl}-1,2,4-oxadiazole-3-carboxamide]
5 | > 10 | >100 | 0.0859 | > 10 |  | CC(C)(C)c1nc(C(=O)NCc2ccc(-c3ccnc4[nH]nc(N[C@@H]5CCNC5)c34)c(F)c2)no1 [Example 129, 5-tert-butyl-N-{[3-fluoro-4-(3-{[(3R)-pyrrolidin-3-yl]amino}-1H-pyrazolo[3,4-b]pyridin-4-yl)phenyl]methyl}-1,2,4-oxadiazole-3-carboxamide]
6 | 1.33 | 1039 | 0.00128 | 3.58 | < 0.01 | CCC(=O)N1CC(Nc2n[nH]c3nccc(-c4ccc(CNC(=O)c5noc(C(C)(C)C)n5)c(F)c4)c23)C1 [Example 130, 5-tert-butyl-N-[(2-fluoro-4-{3-[(1-propanoylazetidin-3-yl)amino]-1H-pyrazolo[3,4-b]pyridin-4-yl}phenyl)methyl]-1,2,4-oxadiazole-3-carboxamide]
7 | 0.106 | 527 | 0.000201 | 0.152 | < 0.01 | CC#CC(=O)N1CC(Nc2n[nH]c3nccc(-c4ccc(CNC(=O)c5noc(C(C)(C)C)n5)c(F)c4)c23)C1 [Example 131, N-{[4-(3-{[1-(but-2-ynoyl)azetidin-3-yl]amino}-1H-pyrazolo[3,4-b]pyridin-4-yl)-2-fluorophenyl]methyl}-5-tert-butyl-1,2,4-oxadiazole-3-carboxamide]
8 | 0.806 | 907 | 0.000889 | 1.28 | < 0.01 | CN(C)C(=O)N[C@@H]1CCN(c2n[nH]c3nccc(-c4ccc(CNC(=O)c5noc(C(C)(C)C)n5)c(F)c4)c23)C1 [Example 132, 5-tert-butyl-N-[(4-{3-[(3R)-3-[(dimethylcarbamoyl)amino]pyrrolidin-1-yl]-1H-pyrazolo[3,4-b]pyridin-4-yl}-2-fluorophenyl)methyl]-1,2,4-oxaidazole-3-carboxamide]
9 | 0.259 | 330 | 0.000785 | 0.111 |  | C=CC(=O)N1CCC[C@@H](Nc2n[nH]c3nccc(-c4ccc(C5(NC(=O)c6noc(C(C)(C)C)n6)CC5)c(F)c4)c23)C1 [Example 133, 5-tert-butyl-N-{1-[2-fluoro-4-(3-{[(3R)-1-(prop-2-enoyl)piperidin-3-yl]amino}-1H-pyrazolo[3,4-b]pyridin-4-yl)phenyl]cyclopropyl}-1,2,4-oxadiazole-3-carboxamide]
10 | 0.348 | 252 | 0.00138 | 0.224 | < 0.01 | C=CC(=O)N1CC[C@@H](Nc2n[nH]c3nccc(-c4ccc(C(C)(C)NC(=O)c5noc(C(C)(C)C)n5)cc4)c23)C1 [Example 134, 5-tert-butyl-N-{2-[4-(3-{[(3R)-1-(prop-2-enoyl)pyrrolidin-3-yl]amino}-1H-pyrazolo[3,4-b]pyridin-4-yl)phenyl]propan-2-yl}-1,2,4-oxadiazole-3-carboxamide]
11 | 0.475 | 54 | 0.00887 | 0.226 | < 0.01 | C=CC(=O)N1CC[C@@H](Nc2n[nH]c3nccc(-c4ccc(CC(=O)Nc5noc(C(C)(C)C)n5)c(F)c4)c23)C1 [Example 135, N-(5-tert-butyl-1,2,4-oxadiazol-3-yl)-2-[2-fluoro-4-(3-{[(3R)-1-(prop-2-enoyl)pyrrolidin-3-yl]amino}-1H-pyrazolo[3,4-b]pyridin-4-yl)phenyl]acetamide]
12 | > 10 |  | > 10 | > 10 |  | C[C@H]1CC[C@@H](Nc2n[nH]c3nccc(-c4ccc(CNC(=O)c5noc(C(C)(C)C)n5)c(F)c4)c23)CN1C(=O)NCC(F)(F)F [Example 138, (2S,5R)-5-{[4-(4-{[(5-tert-butyl-1,2,4-oxadiazol-3-yl)formamido]methyl}-3-fluorophenyl)-1H-pyrazolo[3,4-b]pyridin-3-yl]amino}-2-methyl-N-(2,2,2-trifluoroethyl)piperidine-1-carboxamide]
13 | 0.855 | 323 | 0.00265 | 1.77 | < 0.01 | C[C@H]1CC[C@@H](Nc2n[nH]c3nccc(-c4ccc(CNC(=O)c5noc(C(C)(C)C)n5)c(F)c4)c23)CN1C(=O)CC#N [Example 140, 5-tert-butyl-N-{[4-(3-{[(3R,6S)-1-(2-cyanoacetyl)-6-methylpiperidin-3-yl]amino}-1H-pyrazolo[3,4-b]pyridin-4-yl)-2-fluorophenyl]methyl}-1,2,4-oxadiazole-3-carboxamide]
14 | 2.23 | 315 | 0.00708 | 2.93 | < 0.01 | C[C@H]1CC[C@@H](Nc2n[nH]c3nccc(-c4ccc(CNC(=O)c5noc(C(C)(C)C)n5)c(F)c4)c23)CN1CC#N [Example 143, 5-tert-butyl-N-{[4-(3-{[(3R,6S)-1-(cyanomethyl)-6-methylpiperidin-3-yl]amino}-1H-pyrazolo[3,4-b]pyridin-4-yl)-2-fluorophenyl]methyl}-1,2,4-oxadiazole-3-carboxamide]
